These results are taken from ChEMBL document CHEMBL1144037, “Structural requirements for the stability of novel cephalosporins to AmpC beta-lactamase based on 3D-structure” (2008).

Holding throughout (assay type): functional
For experiment [1], the system named is Pseudomonas aeruginosa. Kind of experiment: Antibacterial activity against Pseudomonas aeruginosa PAO1 after 18 hrs by agar dilution method. The note with it: PAO1, 18 h. For orientation: Agar dilution tests growth on a series of plates holding different concentrations.
Experiment [2] deals with Pseudomonas aeruginosa. Kind of experiment: Antibacterial activity against Pseudomonas aeruginosa PAO1 ampD-deffective mutant after 18 hrs by agar dilution method. The note with it: PAO1, 18 h.
Experiment [3] has as its system Pseudomonas aeruginosa. Kind of experiment: Antibacterial activity against Pseudomonas aeruginosa FP1380 after 18 hrs by agar dilution method. The note with it: FP1380, 18 h.

Molecules are shown by their SMILES. In brackets after ≈: the same amount, converted by molar mass.

What is called MIC is the lowest concentration found to suppress growth. Lower therefore signals a more susceptible organism. For the compound `CCCc1c[n+](CC2=C(C(=O)[O-])N3C(=O)[C@@H](NC(=O)/C(=N\OC(C)(C)C(=O)O)c4nsc(N)n4)[C@H]3SC2)n(C)c1N`, the MIC against Pseudomonas aeruginosa [1] is 2 µg/mL (≈ 3.29 µM); against Pseudomonas aeruginosa [2], 1 µg/mL (≈ 1.65 µM).
Regarding `Cn1c(CCN)cc[n+]1CC1=C(C(=O)[O-])N2C(=O)[C@@H](NC(=O)/C(=N\OC(C)(C)C(=O)O)c3nsc(N)n3)[C@H]2SC1.O=S(=O)(O)O`, the MIC with Pseudomonas aeruginosa [1] amounted to 1 µg/mL; in the experiment on Pseudomonas aeruginosa [2] it was 0.5 µg/mL.
Consider `CC(C)(O/N=C(\C(=O)N[C@@H]1C(=O)N2C(C(=O)[O-])=C(C[n+]3ccccc3)CS[C@H]12)c1csc(N)n1)C(=O)O` [CEFTAZIDIME], for which inhibition of growth in the experiment with Pseudomonas aeruginosa [3] (MIC) required 128 µg/mL (≈ 234 µM).
Regarding `Cn1c(N)c(CN)c[n+]1CC1=C(C(=O)[O-])N2C(=O)[C@@H](NC(=O)/C(=N\OC(C)(C)C(=O)O)c3nsc(N)n3)[C@H]2SC1`, the MIC is 4 µg/mL (≈ 6.73 µM) in the experiment with Pseudomonas aeruginosa [1] and 0.5 µg/mL (≈ 0.841 µM) against Pseudomonas aeruginosa [2].
With `CC(C)(O/N=C(\C(=O)N[C@@H]1C(=O)N2C(C(=O)[O-])=C(C[n+]3ccc(N)n3CCO)CS[C@H]12)c1nsc(N)n1)C(=O)O.Cl`, the minimum inhibitory concentration (MIC) against Pseudomonas aeruginosa [3] turned out to be 16 µg/mL; against Pseudomonas aeruginosa [1] it was 0.5 µg/mL; in the experiment on Pseudomonas aeruginosa [2], 4 µg/mL.
Regarding `Cn1c(N)c(N)c[n+]1CC1=C(C(=O)[O-])N2C(=O)[C@@H](NC(=O)/C(=N\OC(C)(C)C(=O)O)c3nsc(N)n3)[C@H]2SC1`, the MIC against Pseudomonas aeruginosa [1] was 4 µg/mL (≈ 6.89 µM); with Pseudomonas aeruginosa [2], 0.5 µg/mL (≈ 0.861 µM).
Taken in the same sequence, the figures for `Cn1c(N)c(CCCCCN)c[n+]1CC1=C(C(=O)[O-])N2C(=O)[C@@H](NC(=O)/C(=N\OC(C)(C)C(=O)O)c3nsc(N)n3)[C@H]2SC1` were 2 µg/mL (≈ 3.07 µM) and 1 µg/mL (≈ 1.54 µM).
Turning to `Cn1c(N)c(CCCCN)c[n+]1CC1=C(C(=O)[O-])N2C(=O)[C@@H](NC(=O)/C(=N\OC(C)(C)C(=O)O)c3nsc(N)n3)[C@H]2SC1`, the MIC was 1 µg/mL (≈ 1.57 µM) in the experiment with Pseudomonas aeruginosa [1] and 0.5 µg/mL (≈ 0.785 µM) with Pseudomonas aeruginosa [2].
